Experimental data reported in US10035777B2, “Heterocyclic kinase inhibitors” (priority 2014, dated 2018).

target: GST-Xa-hAAK1 (Homo sapiens (Human), UniProt Q2M2I8); test: biochemical; details: not given
Description: The assays were performed in U-bottom 384-well plates. […] The reactions were initiated by the combination of bacterially expressed, GST-Xa-hAAK1 with substrates and test compounds. The reactions were incubated at room temperature for 3 hours and terminated by adding 60 μl of 35 mM EDTA buffer to each sample. The reactions were analyzed on the Caliper LabChip 3000 (Caliper, Hopkinton, Mass.) by electrophoretic separation of the fluorescent substrate and phosphorylated product. […] Compounds were dissolved at 10 mM in dimethylsulfoxide (DMSO) and evaluated at eleven concentrations. IC50 values were derived by non-linear regression analysis.

Sequence of GST-Xa-hAAK1 (Q2M2I8 whole entry): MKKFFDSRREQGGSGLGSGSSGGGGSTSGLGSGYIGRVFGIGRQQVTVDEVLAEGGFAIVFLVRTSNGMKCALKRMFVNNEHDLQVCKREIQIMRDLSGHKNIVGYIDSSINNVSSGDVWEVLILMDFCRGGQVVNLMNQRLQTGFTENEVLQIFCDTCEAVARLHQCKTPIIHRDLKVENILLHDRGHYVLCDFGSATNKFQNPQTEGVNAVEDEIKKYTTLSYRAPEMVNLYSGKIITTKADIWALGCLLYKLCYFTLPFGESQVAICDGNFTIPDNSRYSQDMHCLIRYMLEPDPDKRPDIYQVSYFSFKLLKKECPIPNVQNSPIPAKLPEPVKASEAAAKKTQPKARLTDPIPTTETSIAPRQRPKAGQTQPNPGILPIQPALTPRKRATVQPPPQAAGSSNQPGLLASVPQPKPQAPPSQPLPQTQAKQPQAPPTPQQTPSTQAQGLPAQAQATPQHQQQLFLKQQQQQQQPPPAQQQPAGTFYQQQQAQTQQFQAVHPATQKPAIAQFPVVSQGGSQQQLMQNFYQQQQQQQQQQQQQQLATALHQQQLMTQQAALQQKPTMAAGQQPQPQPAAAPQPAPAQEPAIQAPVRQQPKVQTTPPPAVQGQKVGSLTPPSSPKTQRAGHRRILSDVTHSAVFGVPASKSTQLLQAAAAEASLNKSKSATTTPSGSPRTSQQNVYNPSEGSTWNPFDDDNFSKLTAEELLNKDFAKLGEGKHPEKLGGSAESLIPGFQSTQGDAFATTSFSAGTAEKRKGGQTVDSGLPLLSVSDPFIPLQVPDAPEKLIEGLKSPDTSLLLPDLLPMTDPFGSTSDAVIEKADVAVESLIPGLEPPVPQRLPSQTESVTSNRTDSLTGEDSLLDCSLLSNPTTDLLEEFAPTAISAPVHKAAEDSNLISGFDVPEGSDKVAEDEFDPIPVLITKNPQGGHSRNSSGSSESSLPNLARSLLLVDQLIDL

Row | SMILES | IC50 [nM]
1 | CC(C(N)c1nc2ccc(-c3ccncc3)cc2[nH]1)C(F)(F)F (single isomer, unassigned) [Example 52, 3,3,3-trifluoro-2-methyl-1-(6-(pyridin-4-yl)-1H-benzo[d]imidazol-2-yl)propan-1-amine] | 232
2 | CC(C)C[C@@H](N)c1nc2cc(-c3ccncc3)ccc2[nH]1 [Example 1, (R)-3-methyl-1-(5-(pyridin-4-yl)-1H-benzo[d]imidazol-2-yl)butan-1-amine] | 37
3 | CC(C)C[C@@H](N)c1nc2cc(-c3cc[nH]n3)ccc2[nH]1 [Example 3, (R)-1-(5-(1H-pyrazol-3-yl)-1H-benzo[d]imidazol-2-yl)-3-methylbutan-1-amine] | 56
4 | CC(C)C[C@@H](N)c1nc2cc(-c3cnco3)ccc2[nH]1 [Example 4, (R)-3-methyl-1-(5-(oxazol-5-yl)-1H-benzo[d]imidazol-2-yl)butan-1-amine] | 52
5 | CC(C)C[C@@H](N)c1nc2cc(-c3ccnc4[nH]ccc34)ccc2[nH]1 [Example 6, (R)-1-(5-(1H-pyrrolo[2,3-b]pyridin-4-yl)-1H-benzo[d]imidazol-2-yl)-3-methylbutan-1-amine] | 5
6 | COc1cc(-c2ccncc2)cc2nc([C@H](N)CC(C)C)[nH]c12 [Example 22, (R)-1-(7-methoxy-5-(pyridin-4-yl)-1H-benzo[d]imidazol-2-yl)-3-methylbutan-1-amine] | 52
7 | COc1cc2nc([C@H](N)CC(C)C)[nH]c2cc1-c1cnco1 [Example 29, (R)-1-(5-methoxy-6-(oxazol-5-yl)-1H-benzo[d]imidazol-2-yl)-3-methylbutan-1-amine] | 12
8 | CCn1c([C@H](N)CC(C)C)nc2ccc(-c3ccncc3)cc21 [Example 33, (R)-1-(1-ethyl-6-(pyridin-4-yl)-1H-benzo[d]imidazol-2-yl)-3-methylbutan-1-amine] | 108
9 | CC(C)C[C@@H](N)c1nc2ccc(-c3ccncc3)cc2n1CC(F)(F)F [Example 37, (R)-3-methyl-1-(6-(pyridin-4-yl)-1-(2,2,2-trifluoroethyl)-1H-benzo[d]imidazol-2-yl)butan-1-amine] | 19

same assay, conditions: ATP 22 μM; GST-Xa-hAAK1 3.5 nM; room temperature for 3 hours; Caliper LabChip 3000; read-out: AAK1 IC50

Row | SMILES | IC50 [nM]
10 | CC(C(N)c1nc2ccc(-c3ccncc3)cc2[nH]1)C(F)(F)F (single isomer, unassigned) [Example 53, 3,3,3-trifluoro-2-methyl-1-(6-(pyridin-4-yl)-1H-benzo[d]imidazol-2-yl)propan-1-amine] | 521
11 | CC(C)C[C@H](N)c1nc2ccc(-c3ccncc3)cc2[nH]1 [Example 2, (S)-3-methyl-1-(6-(pyridin-4-yl)-1H-benzo[d]imidazol-2-yl)butan-1-amine] | 53
12 | CC(C)C[C@H](N)c1nc2cc(-c3cnco3)ccc2[nH]1 [Example 5, (S)-3-methyl-1-(5-(oxazol-5-yl)-1H-benzo[d]imidazol-2-yl)butan-1-amine] | 93
13 | CC(C)C[C@@H](N)c1nc2cc(-c3ncnc4[nH]ccc34)ccc2[nH]1 [Example 8, (R)-1-(5-(7H-pyrrolo[2,3-d]pyrimidin-4-yl)-1H-benzo[d]imidazol-2-yl)-3-methylbutan-1-amine] | 4
14 | CC(C)C[C@@H](N)c1nc2cc(-c3ccnc4ccccc34)ccc2[nH]1 [Example 9, (R)-3-methyl-1-(5-(quinolin-4-yl)-1H-benzo[d]imidazol-2-yl)butan-1-amine] | 13
15 | CC(C)C[C@@H](N)c1nc2cc(-c3ccncc3F)ccc2[nH]1 [Example 10, (R)-1-(5-(3-fluoropyridin-4-yl)-1H-benzo[d]imidazol-2-yl)-3-methylbutan-1-amine] | 44
16 | COc1cnccc1-c1ccc2[nH]c([C@H](N)CC(C)C)nc2c1 [Example 11, (R)-1-(5-(3-methoxypyridin-4-yl)-1H-benzo[d]imidazol-2-yl)-3-methylbutan-1-amine] | 93
17 | CC(C)C[C@@H](N)c1nc2cc(-c3ccnc(F)c3)ccc2[nH]1 [Example 12, (R)-1-(5-(2-fluoropyridin-4-yl)-1H-benzo[d]imidazol-2-yl)-3-methylbutan-1-amine] | 148
18 | CC(C)C[C@@H](N)c1nc2cc(-c3ccnc(N(C)C)n3)ccc2[nH]1 [Example 14, (R)-4-(2-(1-amino-3-methylbutyl)-1H-benzo[d]imidazol-5-yl)-N,N-dimethylpyrimidin-2-amine] | 198
19 | CC(C)C[C@@H](N)c1nc2cc(-c3ccnc(C#N)c3)ccc2[nH]1 [Example 15, (R)-4-(2-(1-amino-3-methylbutyl)-1H-benzo[d]imidazol-5-yl)picolinonitrile] | 289
20 | CC(C)C[C@@H](N)c1nc2cc(-c3ccnc(N)n3)ccc2[nH]1 [Example 16, (R)-4-(2-(1-amino-3-methylbutyl)-1H-benzo[d]imidazol-5-yl)pyrimidin-2-amine] | 202
21 | CC(C)C[C@@H](N)c1nc2cc(-c3cc(F)nc(F)c3)ccc2[nH]1 [Example 17, (R)-1-(5-(2,6-difluoropyridin-4-yl)-1H-benzo[d]imidazol-2-yl)-3-methylbutan-1-amine] | 3940
22 | CC(C)C[C@@H](N)c1nc2cc(-c3ccnc(N)c3)ccc2[nH]1 [Example 18, (R)-4-(2-(1-amino-3-methylbutyl)-1H-benzo[d]imidazol-5-yl)pyridin-2-amine] | 19
23 | Cc1n[nH]c(C)c1-c1ccc2[nH]c([C@H](N)CC(C)C)nc2c1 [Example 19, (R)-1-(5-(3,5-dimethyl-1H-pyrazol-4-yl)-1H-benzo[d]imidazol-2-yl)-3-methylbutan-1-amine] | 41
24 | COc1cc(-c2ccc3[nH]c([C@H](N)CC(C)C)nc3c2)c(F)cn1 [Example 20, (R)-1-(5-(5-fluoro-2-methoxypyridin-4-yl)-1H-benzo[d]imidazol-2-yl)-3-methylbutan-1-amine] | 489
25 | COc1cc(-c2cnco2)cc2nc([C@H](N)CC(C)C)[nH]c12 [Example 21, (R)-1-(7-methoxy-5-(oxazol-5-yl)-1H-benzo[d]imidazol-2-yl)-3-methylbutan-1-amine] | 33
26 | COc1cnccc1-c1cc(OC)c2[nH]c([C@H](N)CC(C)C)nc2c1 [Example 23, (R)-1-(7-methoxy-5-(3-methoxypyridin-4-yl)-1H-benzo[d]imidazol-2-yl)-3-methylbutan-1-amine] | 553
27 | COc1cc(-c2cc(OC)c3[nH]c([C@H](N)CC(C)C)nc3c2)ccn1 [Example 24, (R)-1-(7-methoxy-5-(2-methoxypyridin-4-yl)-1H-benzo[d]imidazol-2-yl)-3-methylbutan-1-amine] | 1590
28 | COc1cc(-c2ccncc2)cc2[nH]c(CCC(C)C)nc12 [Example 25, 2-isopentyl-4-methoxy-6-(pyridin-4-yl)-1H-benzo[d]imidazole] | 380
29 | COc1cc(-c2cnco2)cc2[nH]c(CCC(C)C)nc12 [Example 26, 5-(2-isopentyl-4-methoxy-1H-benzo[d]imidazol-6-yl)oxazole] | 217
30 | CC(C)C[C@@H](N)c1nc2cc(-c3ccncc3)c(F)cc2[nH]1 [Example 30, (R)-1-(6-fluoro-5-(pyridin-4-yl)-1H-benzo[d]imidazol-2-yl)-3-methylbutan-1-amine] | 88
31 | CCn1c([C@H](N)CC(C)C)nc2ccc(-c3cnco3)cc21 [Example 32, (R)-1-(1-ethyl-6-(oxazol-5-yl)-1H-benzo[d]imidazol-2-yl)-3-methylbutan-1-amine] | 450
32 | CCn1c([C@H](N)CC(C)C)nc2ccc(-c3cn[nH]c3)cc21 [Example 34, (R)-1-(1-ethyl-6-(1H-pyrazol-4-yl)-1H-benzo[d]imidazol-2-yl)-3-methylbutan-1-amine] | 98
33 | COc1cnccc1-c1ccc2nc([C@H](N)CC(C)C)n(CC(F)(F)F)c2c1 [Example 35, (R)-1-(6-(3-methoxypyridin-4-yl)-1-(2,2,2-trifluoroethyl)-1H-benzo[d]imidazol-2-yl)-3-methylbutan-1-amine] | 25
34 | CC(C)C[C@@H](N)c1nc2ccc(-c3cnco3)cc2n1CC(F)(F)F [Example 36, (R)-3-methyl-1-(6-(oxazol-5-yl)-1-(2,2,2-trifluoroethyl)-1H-benzo[d]imidazol-2-yl)butan-1-amine] | 172
35 | COCCn1c([C@H](N)CC(C)C)nc2ccc(-c3ccncc3)cc21 [Example 38, (R)-1-(1-(2-methoxyethyl)-6-(pyridin-4-yl)-1H-benzo[d]imidazol-2-yl)-3-methylbutan-1-amine] | 531
36 | COCCn1c([C@H](N)CC(C)C)nc2ccc(-c3cnco3)cc21 [Example 39, (R)-1-(1-(2-methoxyethyl)-6-(oxazol-5-yl)-1H-benzo[d]imidazol-2-yl)-3-methylbutan-1-amine] | 6740
37 | CC(C)C[C@@H](N)c1nc2ccc(-c3ccncc3)cc2n1CCO [Example 40, (R)-2-(2-(1-amino-3-methylbutyl)-6-(pyridin-4-yl)-1H-benzo[d]imidazol-1-yl)ethanol] | 271

same assay, conditions: read-out: AAK1 IC50

Row | SMILES | IC50 [nM]
38 | COc1cc(-c2ccc3[nH]c([C@H](N)CC(C)C)nc3c2)ccn1 [Example 13, (R)-1-(5-(2-methoxypyridin-4-yl)-1H-benzo[d]imidazol-2-yl)-3-methylbutan-1-amine] | 171
39 | COc1cnccc1-c1cc2nc([C@H](N)CC(C)C)[nH]c2cc1OC [Example 27, (R)-1-(6-methoxy-5-(3-methoxypyridin-4-yl)-1H-benzo[d]imidazol-2-yl)-3-methylbutan-1-amine] | 2000
40 | COc1cc(-c2cc3nc([C@H](N)CC(C)C)[nH]c3cc2OC)ccn1 [Example 28, (R)-1-(6-methoxy-5-(2-methoxypyridin-4-yl)-1H-benzo[d]imidazol-2-yl)-3-methylbutan-1-amine] | 2000
41 | CC(C)C[C@@H](N)c1nc2cc(F)c(-c3cnco3)cc2[nH]1 [Example 31, (R)-1-(5-fluoro-6-(oxazol-5-yl)-1H-benzo[d]imidazol-2-yl)-3-methylbutan-1-amine] | 32
